The source of these data is ChEMBL document CHEMBL4312010, “Synthesis and antibacterial evaluation of novel oxazolidinone derivatives containing a piperidinyl moiety” (Bioorg Med Chem Lett, 2019).

Converted amounts (≈) assume the structure as drawn.

Data set [1] deals with Staphylococcus aureus. The data set can be described thus: Antibacterial activity agianst methicillin-resistant Staphylococcus aureus. It is filed as functional.
The test system of data set [2] is Enterococcus faecium. The data set can be described thus: Antibacterial activity agianst vancomycin-resistant Enterococcus faecium. The data set is classed as functional.
In data set [3] the test system is Staphylococcus aureus. Put plainly: Antibacterial activity agianst methicillin-sensitive Staphylococcus aureus. It is filed as functional.
The test system of data set [4] is Staphylococcus aureus. Put plainly: Antibacterial activity agianst Staphylococcus aureus ATCC 29213. It is filed as functional.
Data set [5] deals with Enterococcus faecalis. Put plainly: Antibacterial activity agianst linezolid-resistant Enterococcus faecalis. The data set is classed as functional.
Data set [6] has as its target T1, MAO-A (amine oxidase [flavin-containing] A) (Homo sapiens, UniProt P21397).
T1 sequence (P21397 whole entry): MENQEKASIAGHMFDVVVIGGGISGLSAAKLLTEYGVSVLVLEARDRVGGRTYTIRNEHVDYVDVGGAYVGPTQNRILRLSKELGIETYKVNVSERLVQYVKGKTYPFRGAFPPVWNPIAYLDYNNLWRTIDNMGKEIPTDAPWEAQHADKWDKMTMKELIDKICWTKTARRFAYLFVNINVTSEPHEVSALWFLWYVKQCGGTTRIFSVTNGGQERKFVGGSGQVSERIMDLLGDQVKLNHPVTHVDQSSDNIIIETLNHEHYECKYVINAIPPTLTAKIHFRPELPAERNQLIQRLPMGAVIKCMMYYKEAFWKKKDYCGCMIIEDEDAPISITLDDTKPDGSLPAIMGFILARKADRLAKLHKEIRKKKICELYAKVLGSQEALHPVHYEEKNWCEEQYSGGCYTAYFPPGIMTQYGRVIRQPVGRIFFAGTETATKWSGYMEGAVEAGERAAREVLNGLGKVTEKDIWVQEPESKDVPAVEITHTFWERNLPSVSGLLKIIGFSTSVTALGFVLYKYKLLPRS
The data set can be described thus: Inhibition of human MAO-A at 30 uM relative to control.

Data set [7] concerns Enterococcus faecalis. The data set can be described thus: Antibacterial activity agianst linezolid-resistant Enterococcus faecalis clinical isolates. It is filed as functional.
Data set [8] deals with Enterococcus faecium. Put plainly: Antibacterial activity agianst vancomycin-resistant Enterococcus faecium clinical isolates. The data set is classed as functional.
Data set [9] deals with Staphylococcus aureus. Put plainly: Antibacterial activity agianst methicillin-sensitive Staphylococcus aureus clinical isolates. It is filed as functional.
The subject of data set [10] is Enterococcus faecalis. Put plainly: Potency index, ratio of linezolid MIC to compound MIC for antibacterial activity against linezolid-resistant Enterococcus faecalis. It is filed as functional.
Another data set has as its system HepG2. Put plainly: Cytotoxicity against human HepG2 cells assessed as reduction in cell viability. The data set is classed as cell-based.
Data set [11] can be described thus: Metabolic stability in human liver microsomes assessed as parent compound remaining after 45 mins in presence of NADPH relative to control. It is filed as ADME, Microsome. As to conditions: read-out: Stability. On the technique in general: Microsomes from liver hold many membrane-bound enzymes, among them those of drug oxidation.
Data set [12] relates to Enterococcus faecalis. The data set can be described thus: Potency index, ratio of linezolid MIC to compound MIC for antibacterial activity against linezolid-resistant Enterococcus faecalis clinical isolates. The data set is classed as functional.
Data set [13] can be described thus: Intrinsic clearance in human liver microsomes. As to conditions: read-out: CLH. It is filed as ADME, Microsome.
A short description of data set [14]: Half life in human liver microsomes. It is filed as ADME, Microsome.
For data set [15], the system named is Staphylococcus aureus. The data set can be described thus: Antibacterial activity agianst methicillin-resistant Staphylococcus aureus clinical isolates. The data set is classed as functional.

By MIC is commonly meant the least concentration at which growth counts as inhibited. Take `CC(=O)NC[C@H]1CN(c2ccc(N3CCC(Nc4ccccc4OC(F)(F)F)CC3)c(F)c2)C(=O)O1`: the minimal inhibitory concentration (MIC) is 2 µg/mL (≈ 3.92 µM) against Staphylococcus aureus [1]; 2 µg/mL (≈ 3.92 µM) against Enterococcus faecium [2]; 2 µg/mL (≈ 3.92 µM) against Staphylococcus aureus [3]; 2 µg/mL (≈ 3.92 µM) in the data set with Staphylococcus aureus [4]; 1 µg/mL (≈ 1.96 µM) in the data set on Enterococcus faecalis [5].

As to `CC(=O)NC[C@H]1CN(c2ccc(N3CCC(N(C)c4ccc(Br)cc4)CC3)c(F)c2)C(=O)O1`, the minimum inhibitory concentration (MIC) in the data set with Staphylococcus aureus [1] came to 2 µg/mL (≈ 3.85 µM); in the data set on Enterococcus faecium [2], 1 µg/mL (≈ 1.93 µM); in the data set on Staphylococcus aureus [3] it was 2 µg/mL (≈ 3.85 µM); in the data set with Staphylococcus aureus [4] it was 2 µg/mL (≈ 3.85 µM); with Enterococcus faecalis [5] it was 1 µg/mL (≈ 1.93 µM).

Turning to `CC(=O)NC[C@H]1CN(c2ccc(N3CCC(Nc4ccc(C(C)C)cc4)CC3)c(F)c2)C(=O)O1`, the minimal inhibitory concentration (MIC) was determined as 1 µg/mL (≈ 2.13 µM) against Staphylococcus aureus [1]; 0.5 µg/mL (≈ 1.07 µM) against Enterococcus faecium [2]; 2 µg/mL (≈ 4.27 µM) against Staphylococcus aureus [3]; 2 µg/mL (≈ 4.27 µM) in the data set on Staphylococcus aureus [4]; 0.5 µg/mL (≈ 1.07 µM) in the data set on Enterococcus faecalis [5].

Consider `CC(=O)NC[C@H]1CN(c2ccc(N3CCN(Cc4ccc([N+](=O)[O-])o4)CC3)c(F)c2)C(=O)O1` [RANBEZOLID], for which the MIC against Staphylococcus aureus [1], in the data set with Enterococcus faecium [2], against Staphylococcus aureus [3], against Staphylococcus aureus [4] and against Enterococcus faecalis [5] was 0.5 µg/mL (≈ 1.08 µM) each time.

For the compound `CC(=O)NC[C@H]1CN(c2ccc(N3CCC(Nc4ccc(OC(F)(F)F)cc4)CC3)c(F)c2)C(=O)O1`, the MIC was 1 µg/mL (≈ 1.96 µM) in the data set on Staphylococcus aureus [1]; 0.5 µg/mL (≈ 0.979 µM) against Enterococcus faecium [2]; 1 µg/mL (≈ 1.96 µM) against Staphylococcus aureus [3]; 1 µg/mL (≈ 1.96 µM) with Staphylococcus aureus [4]; 0.5 µg/mL (≈ 0.979 µM) in the data set on Enterococcus faecalis [5].

As usually defined, the inhibition is the relative decrease from the control value, in per cent. A lower inhibition goes with little suppression. In turn, `CC(=O)NC[C@H]1CN(c2ccc(N3CCC(Nc4ccccc4)CC3)c(F)c2)C(=O)O1` returned an inhibition at 30 µM in [6] of 85%. Besides, the MIC with Staphylococcus aureus [1] was 1 µg/mL (≈ 2.34 µM); against Enterococcus faecalis [7], 0.125 to 0.25 µg/mL (≈ 0.293 to 0.586 µM); against Enterococcus faecium [8], 0.25 to 0.5 µg/mL (≈ 0.586 to 1.17 µM); with Enterococcus faecium [2] it was 1 µg/mL (≈ 2.34 µM); against Staphylococcus aureus [3], 1 µg/mL (≈ 2.34 µM); in the data set on Staphylococcus aureus [9], 0.5 to 1 µg/mL (≈ 1.17 to 2.34 µM). The minimum inhibitory concentration (MIC) against Staphylococcus aureus [4] came to 1 µg/mL (≈ 2.34 µM); against Enterococcus faecalis [5], 0.5 µg/mL (≈ 1.17 µM).

Broadly, the IC50 is the concentration that inhibits the measured activity by half. As a reminder, the half-life is the time needed for the level to fall by half in the phase considered. Consider `CC(=O)NC[C@H]1CN(c2ccc(N3CCC(Nc4ccc(Br)cc4)CC3)c(F)c2)C(=O)O1`, for which the Ratio in the data set with Enterococcus faecalis [10] and in the data set with Enterococcus faecalis [12] was 64 each time. In addition, the inhibition at 30 µM in data set [6] is 70%. In addition, the minimal inhibitory concentration (MIC) in the data set on Staphylococcus aureus [1] is 0.5 µg/mL (≈ 0.989 µM); in the data set with Enterococcus faecalis [7], 0.0625 to 0.25 µg/mL (≈ 0.124 to 0.495 µM); against Enterococcus faecium [8], 0.125 to 0.25 µg/mL (≈ 0.247 to 0.495 µM); against Enterococcus faecium [2] it was 0.25 µg/mL (≈ 0.495 µM); against Staphylococcus aureus [3], 1 µg/mL (≈ 1.98 µM); against Staphylococcus aureus [9], 0.5 to 1 µg/mL (≈ 0.989 to 1.98 µM). Further, the minimum inhibitory concentration (MIC) in the data set on Staphylococcus aureus [4] was 1 µg/mL (≈ 1.98 µM); against Enterococcus faecalis [5] it was 0.25 µg/mL (≈ 0.495 µM). Besides, the IC50 in the data set on HepG2 is > 64 µM. Besides, the remaining at 0.75 h in data set [11] worked out at 97%. Moreover, in data set [13], the CLint scaled was 3.46 mL/min/kg. This compound also gave a half-life in data set [14] of 502 min.

For the compound `CC(=O)NC[C@H]1CN(c2ccc(N3CCN(/N=C/c4ccc([N+](=O)[O-])o4)CC3)c(F)c2)C(=O)O1`, the MIC in the data set on Staphylococcus aureus [1] was determined as 1 µg/mL (≈ 2.11 µM); in the data set on Enterococcus faecium [2], 1 µg/mL (≈ 2.11 µM); against Staphylococcus aureus [4], 0.5 µg/mL (≈ 1.05 µM).

Consider `CC(=O)NC[C@H]1CN(c2ccc(N3CCC(Nc4ccccc4Br)CC3)c(F)c2)C(=O)O1`, for which the MIC with Staphylococcus aureus [1], against Enterococcus faecium [2], against Staphylococcus aureus [3], against Staphylococcus aureus [4] and in the data set on Enterococcus faecalis [5] was 2 µg/mL (≈ 3.96 µM) throughout.

In [6], `CC(=O)NC[C@H]1CN(c2ccc(N3CCOCC3)c(F)c2)C(=O)O1` [LINEZOLID] registered an inhibition at 30 µM of 75%. Also, the MIC is 1 µg/mL (≈ 2.96 µM) against Staphylococcus aureus [1]; > 16 µg/mL against Enterococcus faecalis [7]; 1 to 4 µg/mL (≈ 2.96 to 11.9 µM) with Enterococcus faecium [8]; 2 µg/mL (≈ 5.93 µM) with Enterococcus faecium [2]; 1 µg/mL (≈ 2.96 µM) in the data set on Staphylococcus aureus [3]; 1 to 2 µg/mL (≈ 2.96 to 5.93 µM) against Staphylococcus aureus [9]. The minimal inhibitory concentration (MIC) is 1 µg/mL (≈ 2.96 µM) in the data set with Staphylococcus aureus [4], > 16 µg/mL in the data set on Enterococcus faecalis [5] and 1 to 4 µg/mL (≈ 2.96 to 11.9 µM) against Staphylococcus aureus [15]. Also, in the data set on HepG2, the IC50 is > 64 µM. Besides, the remaining at 0.75 h in data set [11] worked out at 18%.

For `CC(=O)NC[C@H]1CN(c2ccc(N3CCC(Nc4cccc(OC(F)(F)F)c4)CC3)c(F)c2)C(=O)O1`, the MIC against Staphylococcus aureus [1], in the data set with Enterococcus faecium [2], with Staphylococcus aureus [3], against Staphylococcus aureus [4] and against Enterococcus faecalis [5] was 2 µg/mL (≈ 3.92 µM) throughout.

For the compound `CC(=O)NC[C@H]1CN(c2ccc(N3CCC(Nc4ccc(Br)cc4F)CC3)c(F)c2)C(=O)O1`, the minimal inhibitory concentration (MIC) with Staphylococcus aureus [1] was 2 µg/mL (≈ 3.82 µM); with Enterococcus faecium [2] it was 2 µg/mL (≈ 3.82 µM); against Staphylococcus aureus [3] it was 2 µg/mL (≈ 3.82 µM); in the data set with Staphylococcus aureus [4], 2 µg/mL (≈ 3.82 µM); with Enterococcus faecalis [5], 1 µg/mL (≈ 1.91 µM).

Consider `CC(=O)NC[C@H]1CN(c2ccc(N3CCC(Nc4cccc(Br)c4)CC3)c(F)c2)C(=O)O1`, for which the MIC with Staphylococcus aureus [1], against Enterococcus faecium [2], in the data set with Staphylococcus aureus [3], in the data set on Staphylococcus aureus [4] and against Enterococcus faecalis [5] was 2 µg/mL (≈ 3.96 µM) in each case.

For the compound `CC(=O)NC[C@H]1CN(c2ccc(N3CCC(NCc4ccccc4)CC3)c(F)c2)C(=O)O1`, the MIC in the data set with Staphylococcus aureus [1] was 1 µg/mL (≈ 2.27 µM); in the data set on Enterococcus faecium [2], 2 µg/mL (≈ 4.54 µM); against Staphylococcus aureus [3] it was 1 µg/mL (≈ 2.27 µM); against Staphylococcus aureus [4] it was 2 µg/mL (≈ 4.54 µM); in the data set with Enterococcus faecalis [5], 2 µg/mL (≈ 4.54 µM).

For the compound `CC(=O)NC[C@H]1CN(c2ccc(N3CCC(Nc4ccc(F)cc4)CC3)c(F)c2)C(=O)O1`, the MIC against Staphylococcus aureus [1] was found to be 0.5 µg/mL (≈ 1.12 µM); in the data set on Enterococcus faecium [2] it was 1 µg/mL (≈ 2.25 µM); against Staphylococcus aureus [3], 1 µg/mL (≈ 2.25 µM); in the data set with Staphylococcus aureus [4], 1 µg/mL (≈ 2.25 µM); in the data set with Enterococcus faecalis [5], 1 µg/mL (≈ 2.25 µM).

Turning to `CC(=O)NC[C@H]1CN(c2ccc(N3CCC(NCc4ccc(F)cc4)CC3)c(F)c2)C(=O)O1`, the MIC is 1 µg/mL (≈ 2.18 µM) against Staphylococcus aureus [1]; 2 µg/mL (≈ 4.36 µM) with Enterococcus faecium [2]; 1 µg/mL (≈ 2.18 µM) in the data set on Staphylococcus aureus [3]; 1 µg/mL (≈ 2.18 µM) in the data set with Staphylococcus aureus [4]; 2 µg/mL (≈ 4.36 µM) against Enterococcus faecalis [5].

For `CC(=O)NC[C@H]1CN(c2ccc(N3CCC(Nc4ccc(Cl)cc4)CC3)c(F)c2)C(=O)O1`, the MIC against Staphylococcus aureus [1], in the data set with Enterococcus faecium [2], in the data set on Staphylococcus aureus [3], with Staphylococcus aureus [4] and with Enterococcus faecalis [5] was 2 µg/mL (≈ 4.34 µM) throughout.
